# Values of other authors, collected in patent US4610817A, “N-acyl derivatives of peptides, their preparation and their use in the treatment of disorders, and agents for this purpose” (BASF Aktiengesellschaft, priority 1983, dated 1986).
# Where a SMILES comes first, the peptide text is derived from it.
# System: tremor, rigor and akinesia in Parkinson patients
# Conditions: alone or in combination with L-dopa
compound,measurement,value
"CC(C)C[C@H](NC(=O)[C@@H]1CCCN1)C(=O)NCC(N)=O [MIF, L-Pro-L-Leu-Gly-NH2] (H-Pro-Leu-Gly-NH2)",clinical effect on Parkinson symptoms,"advantageous effect on tremor, rigor and akinesia"
